# Laboratory results taken from ChEMBL document CHEMBL1144193, “Design, synthesis, and evaluation of novel aryl-tetrahydropyridine PPARalpha/gamma dual agonists” (Bioorg Med Chem Lett, 2008).
# What was measured:
# [1] = biological target: T1, Peroxisome proliferator-activated receptor gamma (Homo sapiens, UniProt P37231)
# T1 sequence (P37231 whole entry): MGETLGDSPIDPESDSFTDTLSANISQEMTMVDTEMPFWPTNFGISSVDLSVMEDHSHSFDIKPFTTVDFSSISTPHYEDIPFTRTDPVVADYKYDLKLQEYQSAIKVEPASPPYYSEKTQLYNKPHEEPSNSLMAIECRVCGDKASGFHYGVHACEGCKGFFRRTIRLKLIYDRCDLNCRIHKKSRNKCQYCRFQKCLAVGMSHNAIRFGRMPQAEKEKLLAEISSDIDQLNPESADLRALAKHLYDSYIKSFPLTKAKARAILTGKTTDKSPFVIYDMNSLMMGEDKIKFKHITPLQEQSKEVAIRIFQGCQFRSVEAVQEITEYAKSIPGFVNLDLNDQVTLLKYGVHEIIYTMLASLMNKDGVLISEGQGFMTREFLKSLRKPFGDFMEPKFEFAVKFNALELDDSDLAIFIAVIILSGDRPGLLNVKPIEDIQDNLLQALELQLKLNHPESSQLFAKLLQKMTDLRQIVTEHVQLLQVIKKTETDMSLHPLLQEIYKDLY
# Description: Agonist activity at human PPARgamma expressed in african green monkey CV-1 co-transfected with GAL4 by dual-glo luciferase reporter gene assay
# [2] = biological target: T2, Peroxisome proliferator-activated receptor alpha (Homo sapiens, UniProt Q07869); experiment: Agonist activity at human PPARalpha expressed in african green monkey CV-1 by co-transfected with GAL4 by dual-glo luciferase reporter gene assay; format: functional
# T2 sequence (Q07869 whole entry): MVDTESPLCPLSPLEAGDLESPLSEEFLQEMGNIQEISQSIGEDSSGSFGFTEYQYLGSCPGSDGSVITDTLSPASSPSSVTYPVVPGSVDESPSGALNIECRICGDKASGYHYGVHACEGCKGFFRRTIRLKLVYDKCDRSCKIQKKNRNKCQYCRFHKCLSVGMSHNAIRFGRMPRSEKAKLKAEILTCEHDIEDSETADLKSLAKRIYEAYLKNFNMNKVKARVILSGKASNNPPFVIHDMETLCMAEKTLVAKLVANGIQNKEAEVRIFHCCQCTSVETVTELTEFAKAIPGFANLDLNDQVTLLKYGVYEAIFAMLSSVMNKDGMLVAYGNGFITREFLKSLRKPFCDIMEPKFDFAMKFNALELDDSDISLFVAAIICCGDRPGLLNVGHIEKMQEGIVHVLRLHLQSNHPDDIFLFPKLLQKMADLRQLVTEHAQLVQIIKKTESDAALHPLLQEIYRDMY
# Mus musculus [3] = experiment: Antihyperglycemic activity in po dosed db/db mouse assessed as reduction in glucose level after 28 days; format: functional; conditions: 672 h
# [4] = AUC (0 to 24 hrs) in Sprague-Dawley rat at 3 mg/kg, iv; format: ADME, organism-based; design: time < 24 hr, dose 3 mg/kg, route intravenous; conditions: plasma
# Mus musculus [5] = experiment: Antihyperglycemic activity in db/db mouse assessed as increase in body weight at 3 mg/kg, po once daily after 28 days
# [6] = AUC (0 to 24 hrs) in Sprague-Dawley rat at 3 mg/kg, po; format: ADME, organism-based; design: time < 24 hr, dose 3 mg/kg, route oral; conditions: plasma
# [7] = Half life in Sprague-Dawley rat at 3 mg/kg, iv; format: ADME, organism-based; design: dose 3 mg/kg, route intravenous; conditions: in vivo
# Mus musculus [8] = experiment: Antihyperglycemic activity in db/db mouse assessed as increase in body weight at 1 mg/kg, po once daily after 28 days; format: functional
# [9] = Volume of distribution at steady state in Sprague-Dawley rat at 3 mg/kg, iv; conditions: in vivo
# Mus musculus [10] = experiment: Antihyperglycemic activity in db/db mouse assessed as increase in body weight at 0.3 mg/kg, po once daily after 28 days; format: functional
# Mus musculus [11] = experiment: Antihyperglycemic activity in db/db mouse assessed as reduction in plasma glucose level at 0.1 mg/kg, po once daily after 28 days relative to non-fasting control; format: functional; design: scale not given: the % may be the effect or the level left
# [12] = Oral bioavailability in Sprague-Dawley rat at 3 mg/kg; format: ADME, organism-based; conditions: in vivo
# [13] = Clearance in Sprague-Dawley rat at 3 mg/kg, iv; format: ADME, organism-based; design: dose 3 mg/kg, route intravenous; conditions: in vivo
# [14] = Cmax in Sprague-Dawley rat at 3 mg/kg, po; format: ADME, organism-based; design: dose 3 mg/kg, route oral; conditions: in vivo
# Mus musculus [15] = experiment: Antihyperglycemic activity in db/db mouse assessed as reduction in plasma glucose level at 0.3 mg/kg, po once daily after 28 days relative to non-fasting control; format: functional; design: scale not given: the % may be the effect or the level left
# [16] = Solubility at pH 6.8; format: physicochemical; conditions: buffer
# Mus musculus [17] = experiment: Antihyperglycemic activity in db/db mouse assessed as reduction in plasma glucose level at 1 mg/kg, po once daily after 28 days relative to non-fasting control; format: functional; design: scale not given: the % may be the effect or the level left
# Mus musculus [18] = experiment: Antihyperglycemic activity in db/db mouse assessed as increase in body weight at 0.1 mg/kg, po once daily after 28 days; format: functional
# [19] = Tmax in Sprague-Dawley rat at 3 mg/kg, po; format: ADME, organism-based; design: dose 3 mg/kg, route oral; conditions: in vivo
# Mus musculus [20] = experiment: Antihyperglycemic activity in db/db mouse assessed as reduction in plasma glucose level at 3 mg/kg, po once daily after 28 days relative to non-fasting control; design: scale not given: the % may be the effect or the level left
# Mus musculus [21] = experiment: Antihyperglycemic activity in db/db mouse assessed as increase in body weight at 0.03 mg/kg, po once daily after 28 days; format: functional
# Mus musculus [22] = experiment: Antihyperglycemic activity in db/db mouse assessed as reduction in plasma glucose level at 0.03 mg/kg, po once daily after 28 days relative to non-fasting control; format: functional; design: scale not given: the % may be the effect or the level left
smiles,measurement,setting,value
CCOC(Cc1ccc(OCCN2CC=C(c3ccccc3C(F)(F)F)CC2)cc1)C(=O)O (centres undefined),EC50,[1],7.56 µM
same,EC50,[2],0.542 µM
CCOC(Cc1ccc(OCCN2CC=C(c3ccccc3)CC2)cc1)C(=O)O (centres undefined),EC50,[1],2.15 µM
same,EC50,[2],5.98 µM
CCC(Cc1ccc(OCCN2CC=C(c3ccc(Cl)cc3)CC2)cc1)C(=O)O (centres undefined),EC50,[1],5.29 µM
same,EC50,[2],3.86 µM
CCOC(Cc1ccc(OCCN2CC=C(c3ccc(C(F)(F)F)cc3)CC2)cc1)C(=O)O (centres undefined),EC50,[1],1.89 µM
same,EC50,[2],3.4 µM
CCOC(Cc1ccc(OCCN2CC=C(c3ccc(Cl)cc3Cl)CC2)cc1)C(=O)O (centres undefined),EC50,[1],0.706 µM
same,EC50,[2],1.12 µM
COc1ccc(OC(=O)N(CC(=O)O)Cc2ccc(OCCc3nc(-c4ccccc4)oc3C)cc2)cc1 [MURAGLITAZAR],ED30,Mus musculus [3],0.411 mg/kg
same,AUC(0-t) at 24 h,[4],101 µM·h
same,Activity,Mus musculus [5],16.1 g
same,AUC(0-t) at 24 h,[6],98.8 µM·h
same,half-life,[7],14 h
same,EC50,[2],4.11 µM
same,Activity,Mus musculus [8],14.5 g
same,Vd,[9],0.57 L/kg
same,Activity,Mus musculus [10],12.7 g
same,Activity,Mus musculus [11],4%
same,bioavailability,[12],96.2%
same,clearance,[13],0.73 mL/min/kg
same,Cmax,[14],25.8 µM
same,Activity,Mus musculus [15],11%
same,solubility,[16],41 µg/mL
same,Activity,Mus musculus [17],54%
same,Activity,Mus musculus [18],10.5 g
same,Tmax,[19],0.58 h
same,Activity,Mus musculus [20],78%
CCO[C@@H](Cc1ccc(OCCc2ccc(OS(C)(=O)=O)cc2)cc1)C(=O)O [TESAGLITAZAR],EC50,[1],0.704 µM
same,EC50,[2],3.12 µM
CCOC(Cc1ccc(OCCCN2CC=C(c3ccc(Cl)cc3)CC2)cc1)C(=O)O (centres undefined),EC50,[1],2.32 µM
same,EC50,[2],9.8 µM
CCOC(Cc1ccc(OCCN2CC=C(c3ccccc3Cl)CC2)cc1)C(=O)O (centres undefined),EC50,[1],5.83 µM
same,EC50,[2],7.72 µM
CCOC(Cc1ccc(OCCN2CC=C(c3cnccn3)CC2)cc1)C(=O)O (centres undefined),EC50,[1],12.6 µM
same,EC50,[2],3.67 µM
CCOC(Cc1ccc(OCCN2CC=C(c3ccc(Cl)cc3)CC2)cc1)C(=O)O (centres undefined),EC50,[1],2.06 µM
same,EC50,[2],7.07 µM
CCO[C@@H](Cc1ccc(OCCN2CC=C(c3ccc(Cl)cc3)CC2)cc1)C(=O)O,ED30,Mus musculus [3],0.067 mg/kg
same,AUC(0-t) at 24 h,[4],272 µM·h
same,EC50,[1],0.639 µM
same,Activity,Mus musculus [21],11.2 g
same,AUC(0-t) at 24 h,[6],270 µM·h
same,half-life,[7],23 h
same,EC50,[2],1.73 µM
same,Activity,Mus musculus [8],13.7 g
same,Vd,[9],0.44 L/kg
same,Activity,Mus musculus [10],12.6 g
same,Activity,Mus musculus [11],37%
same,Activity,Mus musculus [22],14%
same,bioavailability,[12],> 100%
same,clearance,[13],0.23 mL/min/kg
same,Cmax,[14],15.9 µM
same,Activity,Mus musculus [15],63%
same,solubility,[16],3260 µg/mL
same,Activity,Mus musculus [17],77%
same,Activity,Mus musculus [18],12.4 g
same,Tmax,[19],0.5 h
CCOC(Cc1ccc(OCCN2CC=C(c3ccccc3OC)CC2)cc1)C(=O)O (centres undefined),EC50,[1],3.93 µM
same,EC50,[2],18.1 µM
CCOC(Cc1ccc(OCCN2CC=C(c3ccc(OC)cc3)CC2)cc1)C(=O)O (centres undefined),EC50,[1],0.396 µM
same,EC50,[2],11.3 µM
CC(Cc1ccc(OCCN2CC=C(c3ccc(Cl)cc3)CC2)cc1)(Oc1ccccc1)C(=O)O (centres undefined),EC50,[1],4.88 µM
same,EC50,[2],25.5 µM
CCOC(Cc1ccc(OCCN2CC=C(c3cccc(C(F)(F)F)c3)CC2)cc1)C(=O)O (centres undefined),EC50,[1],2.23 µM
same,EC50,[2],3.12 µM
CCOC(Cc1ccc(OCCN2CC=C(c3ccc(Cl)c(Cl)c3)CC2)cc1)C(=O)O (centres undefined),EC50,[1],0.67 µM
same,EC50,[2],1.15 µM
